# Experimental data taken from patent US9822078B2, “Quinoline compounds” (Oxford University Innovation Limited, priority 2014, dated 2017).
# Columns and labels:
# [1] = target: T1, Islet amyloid precursor polypeptide, IAPP (Homo sapiens, UniProt P10997); experiment: In vitro assembly assay (thioflavin T fluorescence, with or without air-water interface), IAPP; format: biochemical; conditions: ratio of IC50 with air-water interface (+AWI) to IC50 without (−AWI), IAPP at 4 μM; for Ratio IAPP IC50 (μm) +AWI/−AWI elongation: elongation rate
# T1 construct: Purified synthetic peptides corresponding to IAPP (Bachem, Weil am Rhein, Germany); purchased Bachem, Weil am Rhein, Germany; host or cells: synthetic peptide
# T1 sequence (P10997 34-70 limits assumed): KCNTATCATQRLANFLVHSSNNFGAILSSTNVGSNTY
# Experimental: (§1) The assay is based upon the altered fluorescent properties of the dye thioflavin T when it is intercalated into stacked beta-strand structures, which includes amyloid fibrils. The assay is carried out in multi-well plates in which the air-water interface (AWI) can be independently occluded at any time in the assay by the insertion in any well of a hydrophilic poly-methyl-methacrylate cylinder (Perspex). The cylinder consists of a rod of 6.6 mm in diameter and 6 mm in height with a hemispherical tip. This provides a close fit for the circular cross-section of the well, minimising residual air-water interface, and the hemispherical contour on the inserted end serves to ensure that no air bubbles are trapped on insertion.
# (§2) The assay has a final volume of 100 μl and contains a buffered isotonic solution (Phosphate Buffered Saline pH 7.4), 32 μM Thioflavin T (ThT), an amyloidogenic precursor peptide (Islet amyloid precursor polypeptide, IAPP at 4 μM, or Abeta1-40 at 12 μM, final concentration) and added compounds at indicated concentrations (dissolved in dimethyl sulphoxide, DMSO) or DMSO alone. Purified synthetic peptides corresponding to IAPP (Bachem, Weil am Rhein, Germany) and Aβ1-40 (EZBiolab, Carmel, Ind., USA) were dissolved in DMSO, sonicated, and centrifuged for 1 hour at 15,000 g and 4° C. before use (to remove any pre-aggregated species).
# (§3) The ThT fluorescence signal was measured at 1 minute intervals (excitation 450 nm, emission 480 nm) in a 96-well plate (black wall, clear bottom; Greiner Bio-One, Stonehouse, Gloucestershire, UK) without shaking at 37° C. on a Polarstar plate reader (BMG Labtech, Aylesbury, Buckinghamshire, UK).
# (§4) Any compound or physical device (e.g., Perspex cylinder) used was introduced at the same time in test (containing IAPP) and control wells (buffer and ThT without IAPP). Control values (with or without compounds or physical device) were subtracted from test values. At least 3 independent assays, with every assay done in duplicate wells, were performed and analyzed with the 2-sample t test.
# (§5) A more detailed description of the IAPP and Aβ thioflavin/cylinder assay is given in Jean et al (2012) Biophysical Journal 102 1154-11.
# (§6) The kinetics parameters were calculated from the ThT data as follows; the elongation rate was calculated from the slope at the inflection point of the sigmoidal curve; the plateau height was calculated by averaging the highest curve values (minimum of five values) attained at the end of the experiment; and the lag phase was calculated from the intercept on the time axis of the line formed tangent to the inflection point. At least three independent assays were performed, with every assay performed in duplicate wells. Statistical analysis was performed with the two-sample t-test. Details of the method of calculation of lag phase, elongation rate and plateau height are described in Trigg et al (2013) Biochemical Journal 456 67-80.
# [2] = target: T2, Abeta1-40 (Homo sapiens, UniProt P05067); experiment: In vitro assembly assay (thioflavin T fluorescence), screen against Amyloid-beta (Aβ) peptides; format: biochemical; conditions: Abeta1-40 at 12 μM
# T2 construct: Abeta1-40 at 12 μM, final concentration; purchased EZBiolab, Carmel, Ind., USA; host or cells: synthetic peptide
# Experimental: as §1, §2, §3, §4, §5, §6
# [3] = tested on: C. elegans; experiment: in vivo C. elegans model
# T2 sequence (P05067 672-711 limits assumed): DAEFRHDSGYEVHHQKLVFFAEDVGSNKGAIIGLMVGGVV
Compound,Ratio IAPP IC50 (μm) +AWI/−AWI elongation [1],Ratio IAPP IC50 (μm) +AWI/−AWI Lag phase [1],Active against Aβ [2],activity in an in vivo C. elegans model [3]
Cc1cc(C)c2ccc(/C=C/c3ccc(Br)o3)nc2c1O [Compound 226],3,1,–,–
Cc1cc(C)c2ccc(/C=C/c3cc(C(=O)O)ccc3O)nc2c1O [Compound 236],11,8,✓,showed activity
Cc1cc(C)c2ccc(/C=C/c3ccc(OC(F)(F)F)cc3)nc2c1O [Compound 239],32,11,–,–
Cc1cc(C)c2ccc(/C=C/c3ccccc3C#N)nc2c1O [Compound 229],32,32,✓ (rate),–
Cc1cc(C)c2ccc(/C=C/c3cccc(O)c3)nc2c1O [Compound 227],31,32,✓ (rate),–
Cc1cc(C)c2ccc(/C=C/c3ccc(O)c(O)c3)nc2c1O [Compound 221],16,32,–,–
COc1cc(/C=C/c2ccc3c(C)cc(C)c(O)c3n2)ccc1O [Compound 238],4,32,–,–
Cc1cc(C)c2ccc(/C=C/c3ccc4c(c3)OCO4)nc2c1O [Compound 241],11,3,No,showed activity
Cc1cc(C)c2ccc(/C=C/c3cccc(C#N)c3)nc2c1O [Compound 251],21,21,✓,showed activity
Cc1cc(C)c2ccc(/C=C/C3CCCCC3)nc2c1O [Compound 245],32,32,✓,–
Cc1cc(C)c2ccc(/C=C/c3ccccc3)nc2c1O [Compound 225],4,3,–,–
Cc1cc(C)c2ccc(/C=C/c3ccccc3N)nc2c1O [Compound 131],4,8,–,–
Cc1cc(C)c2ccc(/C=C/c3cccc([N+](=O)[O-])c3)nc2c1O [Compound 234],21,21,–,–
Cc1cc(C)c2ccc(/C=C/c3ccc(Br)cc3)nc2c1O [Compound 252],3,1,–,–
Cc1cc(C)c2ccc(/C=C/c3ccccc3O)nc2c1O [Compound 214],3,32,✓ (rate),showed activity
Cc1cc(C)c2ccc(/C=C/c3cccnc3)nc2c1O [Compound 249],12,32,✓,showed activity
Cc1cc(C)c2ccc(/C=C/c3ccccc3[N+](=O)[O-])nc2c1O [Compound 222],3,11,–,–

# Second part, led by results:
Ratio IAPP IC50 (μm) +AWI/−AWI elongation [1],Ratio IAPP IC50 (μm) +AWI/−AWI Lag phase [1],Active against Aβ [2],Compound,activity in an in vivo C. elegans model [3]
5,1,–,Cc1cc(C)c2ccc(/C=C/c3cccnc3N3CCNCC3)nc2c1O [Compound 325],–
4,21,–,Cc1cc(C)c2ccc(/C=C/c3ccc(N4CCNCC4)nc3)nc2c1O [Compound 324],–
>1,3,–,Cc1cc(C)c2ccc(/C=C/c3cccnc3N)nc2c1O [Compound 321],–
1,2,–,COc1ccc(/C=C/c2ccc3c(C)cc(C)c(O)c3n2)cn1 [Compound 312],–
2.5,11,–,Cc1cc(C)c2ccc(/C=C/c3ccc(N4CCOCC4)nc3)nc2c1O [Compound 323],–
1,4,–,Cc1cc(C)c2ccc(/C=C/c3cccnc3Cl)nc2c1O [Compound 311],–
1,4,–,Cc1ccc(/C=C/c2ccc3c(C)cc(C)c(O)c3n2)cn1 [Compound 322],–
1,1,–,Cc1cc(C)c2ccc(/C=C/c3cccnc3C)nc2c1O [Compound 326],–
